In assay [1] the target is T1, Uracil-DNA glycosylase (Homo sapiens, UniProt P13051). In words: Inhibition of human uracil DNA glycosylase using fluorescent DNA substrate.
In assay [2] the target is T1, Uracil-DNA glycosylase. The assay is described as follows: Inhibition of human uracil DNA glycosylase at […] using fluorescent DNA substrate.

Molecules are shown by their SMILES. pKi: −log10 of the molar value.

T1 sequence (P13051 whole entry): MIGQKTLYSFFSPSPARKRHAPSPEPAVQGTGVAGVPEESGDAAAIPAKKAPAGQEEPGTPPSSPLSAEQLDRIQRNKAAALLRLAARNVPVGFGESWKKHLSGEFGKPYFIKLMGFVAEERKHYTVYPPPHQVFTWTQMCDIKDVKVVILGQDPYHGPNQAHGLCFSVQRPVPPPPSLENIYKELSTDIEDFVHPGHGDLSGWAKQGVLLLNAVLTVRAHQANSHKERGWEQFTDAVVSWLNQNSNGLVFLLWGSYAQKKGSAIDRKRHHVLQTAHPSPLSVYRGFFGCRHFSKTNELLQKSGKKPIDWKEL

The molecule `NOCCCNCc1cc(=O)[nH]c(=O)[nH]1` gave a pKi at Uracil-DNA glycosylase [1] of 3.15. The molecule `NOCCCNCc1cccc(C(=O)O)c1` showed a pKi at Uracil-DNA glycosylase [1] of 1.80. In addition, the inhibition against Uracil-DNA glycosylase [2] came out at 18%. On Uracil-DNA glycosylase [1], `O=Cc1cccc(C(=O)O)c1` [3-FORMYLBENZOIC ACID] gave a pKi of 2.00.

Take `NCCCO/N=C/c1cccc(C(=O)O)c1`: on Uracil-DNA glycosylase [1], the pKi was 2.00. This molecule showed an inhibition on Uracil-DNA glycosylase [2] of 25%.

With `NCCCO/N=C/c1cc(=O)[nH]c(=O)[nH]1`, the pKi at Uracil-DNA glycosylase [1] was 3.12.

One may read the pKi as the Ki on a negative log10 scale, so that one unit is a factor of ten. Read a high pKi as a low Ki. Usually inhibition stands for the share of the control response that was lost under treatment. Low values mean a response near the control, high ones a response far below the control.

These data come from ChEMBL document CHEMBL1212716, “Impact of linker strain and flexibility in the design of a fragment-based inhibitor” (Nat Chem Biol, 2009).
